Reference: US11524046B2, “Biofilm prevention, disruption and treatment with bacteriophage lysin” (priority 2012, dated 2022)
In brackets after ≈: the same amount, converted by molar mass. Read-outs that look alike come from different tables or passages of the source. Marks after values point to notes of the source that are not given here.

Key:
S. aureus strains = test: PlySs2 and antibiotic MIC, broth microdilution, 80% growth inhibition (CLSI M07-A9); assay type: cell-based; details: for MIC90: Staphylococcus aureus
biofilms of BAA-42 MRSA = test: Biofilm eradication in 24-well plates, crystal violet staining; assay type: cell-based, S. aureus; details: for change in biofilm, visually: 1000 ug/ml (1000×MIC), 4 hours or 6 hours; for biofilm clearance: 1000×MIC, 24 hours
[1] = test system: MRSA biofilms grown on catheters (strain ATCC BAA-42); test: Catheter biofilm eradication in vitro, methylene blue staining; details: 1000×MIC, 24 hours
[2] = test system: MRSA biofilms grown on catheters (strain ATCC BAA-42); test: Catheter biofilm residual CFU, BacTiter-Glo luciferase estimate
S. aureus biofilms = details: cited from earlier work; for effect on the established S. aureus biofilms: high concentrations: oxacillin 400, vancomycin 800, clindamycin 800 (printed ag/ml, tag/ml), 24 h
[3] = test system: methicillin resistant S. aureus MRSA strain ATCC BAA-42; test: MIC by broth microdilution (CLSI M07-A9) against strain ATCC BAA-42; assay type: cell-based; details: ATCC BAA-42
[4] = test system: ATCC BAA-42 MRSA biofilms; test: ClyS activity on biofilm in polystyrene plates, crystal violet staining; assay type: cell-based, S. aureus; details: 24 hours

CCCCCCCCCC(=O)N[C@@H](Cc1c[nH]c2ccccc12)C(=O)N[C@H](CC(N)=O)C(=O)N[C@@H](CC(=O)O)C(=O)N[C@@H]1C(=O)NCC(=O)N[C@@H](CCCN)C(=O)N[C@@H](CC(=O)O)C(=O)N[C@H](C)C(=O)N[C@@H](CC(=O)O)C(=O)NCC(=O)N[C@H](CO)C(=O)N[C@@H]([C@H](C)CC(=O)O)C(=O)N[C@@H](CC(=O)c2ccccc2N)C(=O)O[C@@H]1C [Daptomycin, daptomycin]
MIC90 (S. aureus strains; DRSA (n = 8), read-out: MIC90): 9.9 µM (≈ 16 µg/mL) | MIC90 (S. aureus strains; LRSA (n = 5), read-out: MIC90): 0.6 µM (≈ 0.972 µg/mL) | MIC90 (S. aureus strains; MRSA, MRSA (n = 45), read-out: MIC90): 0.6 µM (≈ 0.972 µg/mL) | MIC90 (S. aureus strains; MSSA, MSSA (n-28), read-out: MIC90): 0.6 µM (≈ 0.972 µg/mL) | MIC90 (S. aureus strains; VISA, VISA (n = 10), read-out: MIC90): 4.9 µM (≈ 7.94 µg/mL) | MIC90 (S. aureus strains; VRSA, VRSA (n = 14), read-out: MIC90): 0.6 µM (≈ 0.972 µg/mL) | change in biofilm, visually (biofilms of BAA-42 MRSA): No change | biofilm clearance (biofilms of BAA-42 MRSA): no biofilm clearance | biofilm dissolution (biofilms of BAA-42 MRSA; concentrations up to 10×MIC, up to 24 hours): no dissolution | biofilm clearance from the catheter [1]: did not remove significant biofilm | CFU reduction ([2]; 1×MIC, 24 hours): no CFU reduction | CFUs remaining in catheter biofilm ([2]; 1000× MIC, 24 hours, from 100 million): 1 million | CFU reduction ([2]; 1000×MIC, 24 hours): two log reduction | removal of biofilm bacteria ([2]; up to concentrations of 5000×MIC): completely ineffective

CC(=O)NC[C@H]1CN(c2ccc(N3CCOCC3)c(F)c2)C(=O)O1 [Linezolid, linezolid]
MIC50/90 (S. aureus strains; DRSA (n = 8)): 2 | MIC50/90 [uM] (S. aureus strains; DRSA (n = 8)): 5.7 µM (≈ 1.92 µg/mL) | MIC50/90 (S. aureus strains; LRSA (n = 5)): >64 | MIC50/90 [uM] (S. aureus strains; LRSA (n = 5)): >183 µM | MIC50/90 (S. aureus strains; MRSA (n = 45)): 2 | MIC50/90 [uM] (S. aureus strains; MRSA (n = 45)): 5.7 µM (≈ 1.92 µg/mL) | MIC50/90 (S. aureus strains; MSSA (n-28)): 2 | MIC50/90 [uM] (S. aureus strains; MSSA (n-28)): 5.7 µM (≈ 1.92 µg/mL) | MIC50/90 (S. aureus strains; VISA (n = 10)): 2 | MIC50/90 [uM] (S. aureus strains; VISA (n = 10)): 5.7 µM (≈ 1.92 µg/mL) | MIC50/90 (S. aureus strains; VRSA (n = 14)): 2 | MIC50/90 [uM] (S. aureus strains; VRSA (n = 14)): 5.7 µM (≈ 1.92 µg/mL) | change in biofilm, visually (biofilms of BAA-42 MRSA): No change | biofilm clearance (biofilms of BAA-42 MRSA): no biofilm clearance

Cc1onc(-c2ccccc2)c1C(=O)N[C@@H]1C(=O)N2[C@@H]1SC(C)(C)[C@@H]2C(=O)O [Oxacillin, oxacillin]
MIC50/90 (S. aureus strains; MRSA (n = 45)): >4* | MIC50/90 [uM] (S. aureus strains; MRSA (n = 45)): >10.0 µM | effect on the established S. aureus biofilms (S. aureus biofilms): no effect

CN[C@H](CC(C)C)C(=O)N[C@H]1C(=O)N[C@@H](CC(N)=O)C(=O)N[C@H]2C(=O)N[C@H]3C(=O)N[C@H](C(=O)N[C@H](C(=O)O)c4cc(O)cc(O)c4-c4cc3ccc4O)[C@H](O)c3ccc(c(Cl)c3)Oc3cc2cc(c3O[C@@H]2O[C@H](CO)[C@@H](O)[C@H](O)[C@H]2O[C@H]2C[C@](C)(N)[C@H](O)[C@H](C)O2)Oc2ccc(cc2Cl)[C@H]1O [Vancomycin, vancomycin]
MIC90 (S. aureus strains): 0.7 µM (≈ 1.01 µg/mL) | MIC90 (S. aureus strains; MRSA): 0.7 µM (≈ 1.01 µg/mL) | MIC90 (S. aureus strains; MSSA): 0.7 µM (≈ 1.01 µg/mL) | MIC90 (S. aureus strains; VISA): 2.7 µM (≈ 3.91 µg/mL) | MIC90 (S. aureus strains; VRSA): > 10.6 µM | change in biofilm, visually (biofilms of BAA-42 MRSA): No change | biofilm clearance (biofilms of BAA-42 MRSA): no biofilm clearance | effect on the established S. aureus biofilms (S. aureus biofilms): no effect

Lysostaphin: gene product of Staphylococcus simulans degrading the polyglycine crosslinks of the S. aureus cell wall
effect on S. aureus biofilms in vitro on plastic and glass surfaces (S. aureus biofilms; lysostaphin-sensitive S. aureus): disrupted the extracellular matrix

B1: ClyS: chimeric lysin with activity against Staphylococci, detailed in WO 2010/002959; SEQ ID NO: 5 (protein, listed as Staphylococcus aureus)
chain: METLKQAESYIKSKVNTGTDFDGLYGYQCMDLAVDYIYHVTDGKIRMWGNAKDAINNSFGGTATVYKNYPAFRPKYGDVVVWTTGNFATYGHIAIVTNPDPYGDLQYVTVLEQNWNGNGIYKTELATIRTHDYTGITHFIRPNFATESSVKKKDTKKKPKPSNRDGLNKDKIVYDRTNINYNMVLQGKSASKITVGSKAPYNLKWSKGAYFNAKIDGLGATSATRYGDNRTNYRFDVGQAVYAPGTLIYVFEIIDGWCRIYWNNHNEWIWHERLIVKEVF
MIC of the ClyS lysin [3]: 32 mg/L | biofilm dispersal ([4]; 0.032 μg/ml): somewhat | biofilm dispersal ([4]; 0.32 μg/ml): Reduction in stained biofilm | biofilm dispersal ([4]; 3.2 μg/ml (0.1× MIC)): effectively disperses | biofilm dispersal ([4]; 32 μg/ml (1×MIC)): effectively disperses
